Measurements as given in patent US4940714A, “2-substituted carbonylimidazo[4,5-c]quinolines” (Shionogi & Co., Ltd., priority 1988, dated 1990).

Legend:
Benzodiazepine Receptor = experiment: Test on Binding to Benzodiazepine Receptor (inhibition of specific binding of tritium-labeled diazepam); parameters: species or system male Wistar rats (cerebral cortex); conditions: 2 nM tritium-labeled diazepam, 0° C., 60 minutes, rat cerebral cortex receptor preparation
Protocol: Test on Binding to Benzodiazepine Receptor
This test was carried out modifying partially a method of Mohler & Okada, Science, 198, 849-851 (1977). Receptor preparation was provided from the cerebral cortex of male Wistar rats (11-13 weeks age). Inhibitory action of the test compound on the specific binding of tritium-labeled diazepam to the receptor was evaluated as follows: 2 nM tritium-labeled diazepam and an aqueous solution of the test compound in 5 or 6 different concentrations were incubated with the receptor preparation at 0° C. for 60 minutes. The 50% inhibitory concentration (IC50) was measured by the concentration-response curve. In addition, the inhibitory constant (Ki) of the test compound was calculated by dissociation constant (Kd) and concentration (L) of the tritium-labeled diazepam.

[1] = tested on: Pentylenetetrazole-Induced Convulsion; experiment: Potentiation of Pentylenetetrazole-Induced Convulsion (inverse agonist activity); format: in vivo; conditions: Mus musculus; intravenous injection; pentylenetetrazole 90 mg/kg subcutaneous; 2-hour observation; male mice; probit method; read-out: ED50 (dose required to produce tonic convulsion and death in 50% of the animals)
Protocol: Potentiation of Pentylenetetrazole-Induced Convulsion
(§1) Inverse agonist activity was evaluated in this Experiment. Pentylenetetrazole was subscutaneously administered male mice (a group of 8-16 male mice was employed in each test) at a dose of 90 mg/kg immediately after intravenous injection of the test compound. The dose (ED50) required to produce tonic convulsion and death in 50% of the aminals during subsequent 2-hour observation period was calculated by the probit method.

[2] = tested on: Pentylenetetrazole-Induced Convulsion; experiment: Antagonism of Pentylenetetrazole-Induced Convulsion (agonistic activity); format: in vivo; conditions: Mus musculus; intravenous injection; pentylenetetrazole 125 mg/kg subcutaneous; 2-hour observation; male mice; probit method; read-out: ED50 (dose required to prevent tonic convulsion and death in 50% of the animals)
Protocol: Anatagonism of Pentylenetetrazole-Induced Convulsion
as §1, with “Agonistic” for “Inverse agonist”, “125” for “90”, “prevent” for “produce”, “animals” for “aminals”

learning and memory [3] = conditions: M. Sarter et al., TINS 11, 13 (1988); cited from earlier work
learning and memory [4] = conditions: M. Sarter et al., TINS 11, 13 (1988); cited from earlier work; remark: listed apart in the source

| Compound | Ki (Benzodiazepine Receptor) | also measured |
| --- | --- | --- |
| O=C(c1nc2cnc3ccccc3c2[nH]1)C1CC1 [Ic-1, 2-Cyclopropylcarbonyl-1H-imidazo[4,5-c]quinoline] | 0.357 nM | – |
| CCC(=O)c1nc2cnc3ccccc3c2[nH]1 [Ic-4] | 0.409 nM | – |
| CCCC(=O)c1nc2cnc3ccccc3c2[nH]1 [Ic-6] | 0.432 nM | ED50 [1]: 1 mg/kg |
| CCCCCCC(=O)c1nc2cnc3ccccc3c2[nH]1 [Ic-9] | 6.11 nM | ED50 [2]: 3.21 mg/kg |
| CC(C)C(=O)c1nc2cnc3ccccc3c2[nH]1 [Ic-14] | 1.24 nM | ED50 [1]: 0.2 mg/kg |
| CCC(C)C(=O)c1nc2cnc3ccccc3c2[nH]1 (stereo not shown) [Ic-18] | 3.6 nM | – |
| O=C(c1nc2cnc3ccc(F)cc3c2[nH]1)C1CC1 [Ic-21] | 0.5 nM | – |
| COc1ccc2c(c1)ncc1nc(C(=O)C3CC3)[nH]c12 [Ic-22] | 1.9 nM | ED50 [1]: 0.15 mg/kg |
| C/C=C/C(=O)c1nc2cnc3ccccc3c2[nH]1 [Ic-27] | 13.1 nM | ED50 [2]: 2.47 mg/kg |
| CSCCC(=O)c1nc2cnc3ccccc3c2[nH]1 [Ic-31] | 1.5 nM | – |
| O=C(c1nc2cnc3ccccc3c2[nH]1)c1ccc(Cl)s1 [Ic-36, 2-[(5-Chlorothiophen-2-yl)carbonyl]-1H-imidazo[4,5-c]quinoline] | – | ED50 [2]: 0.46 mg/kg |
| O=C(c1nc2cnc3ccccc3c2[nH]1)c1ccccc1F [Ic-37] | 2.21 nM | – |
| O=C(c1cccc(F)c1)c1nc2cnc3ccccc3c2[nH]1 [Ic-38] | – | ED50 [2]: 1.12 mg/kg |
| O=C(c1ccc(Cl)cc1)c1nc2cnc3ccccc3c2[nH]1 [Ic-41] | 8.33 nM | – |
| CSc1ccc(C(=O)c2nc3cnc4ccccc4c3[nH]2)cc1 [Ic-45] | 3.2 nM | ED50 [2]: 0.88 mg/kg |
| O=C(c1cccnc1)c1nc2cnc3ccccc3c2[nH]1 [Ic-49] | 1.8 nM | – |
| O=C(c1nc2cnc3ccccc3c2[nH]1)c1cccs1 [Ic-50] | 0.819 nM | – |
| O=C(c1nc2cnc3ccccc3c2[nH]1)c1ccco1 [Ic-56] | 1.07 nM | – |
| Cc1cc(C(=O)c2nc3cnc4ccccc4c3[nH]2)no1 [Ic-60] | 0.373 nM | ED50 [1]: 0.71 mg/kg |
| CCOC(=O)c1nc2cnc3ccccc3c2[nH]1 [Ic-64, 2-Ethoxycarbonyl-1H-imidazo[4,5-c]quinoline] | – | ED50 [1]: 0.31 mg/kg |
| CCNC(=O)c1nc2cnc3ccccc3c2[nH]1 [Ic-67] | – | ED50 [1]: 0.35 mg/kg |
| O=C(c1ccccc1)c1nc2cnc3ccccc3c2[nH]1 [Id-2] | – | ED50 [2]: 1.06 mg/kg |
| CN1C(=O)CN=C(c2ccccc2)c2cc(Cl)ccc21 [diazepam] | – | performance (learning and memory) in humans (learning and memory [3]): impairs such performance |
| COC(=O)c1cc2c(cn1)[nH]c1ccccc12 [methyl β-carbonline-3-carboxylate] | – | performance in several animal models of learning and memory (learning and memory [4]): enhances the performance |
